Measurements from patent US7361659B2, “Pyrrazolo-pyrimidine derivatives” (Hoffmann-La Roche Inc., priority 2005, dated 2008).

melting point	Structure (SMILES)
220 °C	CCOc1cc(-c2cc(C(F)(F)F)n3ncc(C(=O)Nc4nc(C)c(S(=O)(=O)NC(C)(CO)CO)s4)c3n2)ccc1C(F)(F)F [Example 53, 5-(3-Ethoxy-4-trifluoromethyl-phenyl)-7-trifluoromethyl-pyrazolo[1,5-a]pyrimidine-3-carboxylic acid [5-(2-hydroxy-1-hydroxymethyl-1-methyl-ethylsulfamoyl)-4-methyl-thiazol-2-yl]-amide]
180 °C	Cc1sc(S(=O)(=O)NC(C)(C)CO)cc1NC(=O)c1cnn2c(C(F)F)cc(-c3ccc(C(F)(F)F)cc3)nc12 [Example 50, 7-Difluoromethyl-5-(4-trifluoromethyl-phenyl)-pyrazolo[1,5-a]pyrimidine-3-carboxylic acid [5-(2-hydroxy-1,1-dimethyl-ethylsulfamoyl)-2-methyl-thiophen-3-yl]-amide]
162 °C	CN(C)CCNS(=O)(=O)c1cc(NC(=O)c2cnn3c(C(F)F)cc(-c4ccc(C(F)(F)F)cc4)nc23)c(Cl)s1 [Example 54, 7-Difluoromethyl-5-(4-trifluoromethyl-phenyl)-pyrazolo[1,5-a]pyrimidine-3-carboxylic acid [2-chloro-5-(2-dimethylamino-ethylsulfamoyl)-thiophen-3-yl]-amide]
166 °C	Cc1nc(NC(=O)c2cnn3c(C(F)(F)F)cc(-c4ccc(C(F)(F)F)cc4)nc23)sc1S(=O)(=O)NCCO [Example 46, 7-Trifluoromethyl-5-(4-trifluoromethyl-phenyl)-pyrazolo[1,5-a]pyrimidine-3-carboxylic acid [5-(2-hydroxy-ethylsulfamoyl)-4-methyl-thiazol-2-yl]-amide]
209 °C	O=C(Nc1cc(S(=O)(=O)NCCO)sc1Cl)c1cnn2c(C(F)F)cc(-c3ccc(C(F)(F)F)cc3)nc12 [Example 44, 7-Difluoromethyl-5-(4-trifluoromethyl-phenyl)-pyrazolo[1,5-a]pyrimidine-3-carboxylic acid [2-chloro-5-(2-hydroxy-ethylsulfamoyl)-thiophen-3-yl]-amide]
313 °C	Cc1sc(S(N)(=O)=O)cc1NC(=O)c1cnn2c(C(F)F)cc(-c3ccc(C(F)(F)F)cc3)nc12 [Example 48, 7-Difluoromethyl-5-(4-trifluoromethyl-phenyl)-pyrazolo[1,5-a]pyrimidine-3-carboxylic acid (2-methyl-5-sulfamoyl-thiophen-3-yl)-amide]
273 °C	Cc1nc(NC(=O)c2cnn3c(C(F)(F)F)cc(-c4ccc(C(F)(F)F)cc4)nc23)sc1S(=O)(=O)N1CCN(C)CC1 [Example 69, 7-Trifluoromethyl-5-(4-trifluoromethyl-phenyl)-pyrazolo[1,5-a]pyrimidine-3-carboxylic acid [4-methyl-5-(4-methyl-piperazine-1-sulfonyl)-thiazol-2-yl]-amide]
221 °C	CN(CCO)S(=O)(=O)c1cc(NC(=O)c2cnn3c(C(F)(F)F)cc(-c4ccc(C(F)(F)F)cc4)nc23)c(Cl)s1 [Example 77, 7-Trifluoromethyl-5-(4-trifluoromethyl-phenyl)-pyrazolo[1,5-a]pyrimidine-3-carboxylic acid {2-chloro-5-[(2-hydroxy-ethyl)-methyl-sulfamoyl]-thiophen-3-yl}-amide]
266 °C	Cc1nc(NC(=O)c2cnn3c(C(F)(F)F)cc(-c4ccc(C(F)(F)F)cc4)nc23)sc1S(=O)(=O)N(C)CCO [Example 71, 7-Trifluoromethyl-5-(4-trifluoromethyl-phenyl)-pyrazolo[1,5-a]pyrimidine-3-carboxylic acid {5-[(2-hydroxy-ethyl)-methyl-sulfamoyl]-4-methyl-thiazol-2-yl}-amide]
293 to 294 °C	Cc1nc(NC(=O)c2cnn3c(C4CC4)cc(-c4ccc(Cl)cc4)nc23)sc1S(=O)(=O)NC(C)(C)CO [Example 62, 5-(4-Chloro-phenyl)-7-cyclopropyl-pyrazolo[1,5-a]pyrimidine-3-carboxylic acid [5-(2-hydroxy-1,1-dimethyl-ethylsulfamoyl)-4-methyl-thiazol-2-yl]-amide]

Further lines, the compound ahead of its results:

Structure (SMILES)	melting point
Cc1nc(NC(=O)c2cnn3c(C(F)(F)F)cc(-c4ccc(Cl)cc4)nc23)sc1S(N)(=O)=O [Example 19, 5-(4-Chloro-phenyl)-7-trifluoromethyl-pyrazolo[1,5-a]pyrimidine-3-carboxylic acid (4-methyl-5-sulfamoyl-thiazol-2-yl)-amide]	305 °C
O=C(Nc1cc(S(=O)(=O)NC(CO)CO)sc1Cl)c1cnn2c(C(F)F)cc(-c3ccc(C(F)(F)F)cc3)nc12 [Example 28, 7-Difluoromethyl-5-(4-trifluoromethyl-phenyl)-pyrazolo[1,5-a]pyrimidine-3-carboxylic acid [2-chloro-5-(2-hydroxy-1-hydroxymethyl-ethylsulfamoyl)-thiophen-3-yl]-amide]	241 °C
NS(=O)(=O)c1nnc(NC(=O)c2cnn3c(C(F)(F)F)cc(-c4ccc(C(F)(F)F)cc4)nc23)s1 [Example 4, 7-Trifluoromethyl-5-(4-trifluoromethyl-phenyl)-pyrazolo[1,5-a]pyrimidine-3-carboxylic acid (5-sulfamoyl-[1,3,4]thiadiazol-2-yl)-amide]	280 °C
CC(C)(CO)NS(=O)(=O)c1cc(NC(=O)c2cnn3c(C(F)F)cc(-c4ccc(C(F)(F)F)cc4)nc23)c(Cl)s1 [Example 5, 7-Difluoromethyl-5-(4-trifluoromethyl-phenyl)-pyrazolo[1,5-a]pyrimidine-3-carboxylic acid [2-chloro-5-(2-hydroxy-1,1-dimethyl-ethylsulfamoyl)-thiophen-3-yl]-amide]	233 °C
CCOc1cc(-c2cc(C(F)(F)F)n3ncc(C(=O)Nc4nc(C)c(S(=O)(=O)NC(C)(C)CO)s4)c3n2)ccc1C(F)(F)F [Example 23, 5-(3-Ethoxy-4-trifluoromethyl-phenyl)-7-trifluoromethyl-pyrazolo[1,5-a]pyrimidine-3-carboxylic acid [5-(2-hydroxy-1,1-dimethyl-ethylsulfamoyl)-4-methyl-thiazol-2-yl]-amide]	276 °C
Cc1cc(-c2cc(C(F)(F)F)n3ncc(C(=O)Nc4nc(C)c(S(N)(=O)=O)s4)c3n2)ccc1C(F)(F)F [Example 21, 5-(3-Methyl-4-trifluoromethyl-phenyl)-7-trifluoromethyl-pyrazolo[1,5-a]pyrimidine-3-carboxylic acid (4-methyl-5-sulfamoyl-thiazol-2-yl)-amide]	309 °C
O=C(Nc1cc(S(=O)(=O)NC(CO)CO)sc1Cl)c1cnn2c(C(F)(F)F)cc(-c3ccc(C(F)(F)F)cc3)nc12 [Example 29, 7-Trifluoromethyl-5-(4-trifluoromethyl-phenyl)-pyrazolo[1,5-a]pyrimidine-3-carboxylic acid [2-chloro-5-(2-hydroxy-1-hydroxymethyl-ethylsulfamoyl)-thiophen-3-yl]-amide]	225 °C
Cc1nc(NC(=O)c2cnn3c(C(F)F)cc(-c4ccc(C(F)(F)F)cc4)nc23)sc1S(N)(=O)=O [Example 7, 7-Difluoromethyl-5-(4-trifluoromethyl-phenyl)-pyrazolo[1,5-a]pyrimidine-3-carboxylic acid (4-methyl-5-sulfamoyl-thiazol-2-yl)-amide]	284 °C
